Assay [1] deals with RWPE-1 (normal: prostate). Kind of assay: IC50 against cell lines: RWPE-1. To be noted: Homo sapiens, RWPE-1, read-out: IC50 ± SD against human cancer cell lines.
In assay [2] the test system is histone and α-tubulin acetylation in MDA-MD-231 breast carcinoma. Kind of assay: Western blot: acetylation in MDA-MD-231 cells. The format is cell-based, human. As to the method:
More specifically, cells in the logarithmic phase were initially seeded at a density of 1×10^6 in 100 mm^2 dishes. […] Briefly, cells were lysed with the cell lysis reagent CelLytic™ M (Sigma-Aldrich) containing 1 mM DTT, 1 mM PMSF and protease inhibitors for whole-cell lysate preparation. Equal amounts of lysate (on a protein basis) were then differentiated using the SDS-PAGE, blotted on PVDF membranes, conjugated with various specific primary antibodies, and then probed with appropriate secondary antibodies. The immunoreactive bands were detected using the ECL method and visualized on Kodak Bio-MAX MR film.
(§1) Proteins from cells were extracted and subjected to the western blotting analysis. β-Actin was used as an internal control. The deacetylase enzyme assay was based on a homogeneous fluorescence release assay. […] After fluorophore from the deacetylated substrates, fluorescent signal was detected.
On the technique in general: Immunoblotting shows a protein as a band on a membrane.

A further assay concerns H9 (T cell lymphoma). The assay can be described thus: IC50 against human cancer cell lines: H9. To be noted: read-out: IC50 ± SD against human cancer cell lines.
Assay [3] has as its system MDA-MB-231 (breast carcinoma). Kind of assay: IC50 against human cancer cell lines: MDA-MB-231. To be noted: MDA-MB-231, read-out: IC50 ± SD against human cancer cell lines.
Description: (§2) More specifically, the IC50 values of test compounds were determined by carrying out a fluorimetric histone deacetylase assay following the manufacturer's instructions. For a pan-HDAC assay, HeLa nuclear extracts were used as a source of histone deacetylase (BioVision Inc.). Histone deacetylase isomer inhibition assays were conducted using purified recombinant histone deacetylase proteins of the various isomers (BPS Bioscience Inc.). Reactions were performed in 0.1 mol/L KCl, 20 mmol/L HEPES/NaOH at pH 7.9, 20% glycerol, 0.2 mmol/L DTA, 0.5 mmol/L DTT, and 0.5 mmol/L phenylmethylsulfonylfluoride. […] Reactions were carried out in triplicate for each test compound. Each point represented the mean±SD of replicates.
The test system of another assay is OECM-1 (oral carcinoma). The assay can be described thus: IC50 against human cancer cell lines: OECM-1. To be noted: OECM1, read-out: IC50 ± SD against human cancer cell lines.
The next assay deals with SCC15 (tongue carcinoma). The assay can be described thus: IC50 against human cancer cell lines: SCC15. The note with it: SCC-15, read-out: IC50 ± SD against human cancer cell lines.
In another assay the target is HDAC2 (Homo sapiens, UniProt Q92769). Kind of assay: Deacetylase enzyme assay (fluorescence release): HDAC2. The assay is classed as biochemical. To be noted: 24-hour study.
Description: as §1

For the next assay, the target named is HDAC6 (Homo sapiens, UniProt Q9UBN7). The assay can be described thus: Deacetylase enzyme assay (fluorescence release): HDAC6. The format is biochemical. The note with it: 24-hour study.
Description: as §1

Assay [4] has as its system LNCaP-104 (prostate carcinoma). Kind of assay: IC50 against human cancer cell lines: LNCaP-104. The note with it: read-out: IC50 ± SD against human cancer cell lines.
For a further assay, the system named is BJAB (B cell lymphoma). Kind of assay: IC50 against human cancer cell lines: BJAB. To be noted: read-out: IC50 ± SD against human cancer cell lines.
In another assay the test system is KB-L30 (KB-resistant). Kind of assay: IC50 against human cancer cell lines: KB-L30. To be noted: read-out: IC50 ± SD against human cancer cell lines.
Assay [5] relates to K2 (normal: keratinocyte). The assay can be described thus: IC50 against cell lines: K2. The note with it: Homo sapiens, read-out: IC50 ± SD against human cancer cell lines.
In assay [6] the test system is LNCaP-R2 (prostate carcinoma). Kind of assay: IC50 against human cancer cell lines: LNCaP-R2. To be noted: read-out: IC50 ± SD against human cancer cell lines.
The test system of another assay is KB-VIN10 (KB resistant). The assay can be described thus: IC50 against human cancer cell lines: KB-VIN10. The note with it: Homo sapiens, KB-VIN10, read-out: IC50 ± SD against human cancer cell lines.
Assay [7] has as its system DU-145 (prostate carcinoma). Kind of assay: IC50 against human cancer cell lines: DU-145. The note with it: DU-145, read-out: IC50 ± SD against human cancer cell lines.
Description: as §2
Assay [8] has as its system MKN-45 (gastric carcinoma). Kind of assay: IC50 in human cancer cell lines (inhibiting HDAC): MKN-45. To be noted: MKN-45, read-out: IC50, inhibiting HDAC in human cancer cell lines.
Description: as §2
The next assay concerns HDAC1-10. The assay can be described thus: SDS-PAGE and western blot analysis: HDAC1-10 in PC3 cells. The assay is classed as cell-based, human. To be noted: 48 hours. The protocol: More specifically, cells in the logarithmic phase were initially seeded at a density of 1×10^6 in 100 mm^2 dishes. […] IC50 indicia of compound in vitro potency) for the indicated times (i.e., 24 and 48 hours), adherent cells were collected for protein extract preparation. Briefly, cells were lysed with the cell lysis reagent CelLytic™ M (Sigma-Aldrich) containing 1 mM DTT, 1 mM PMSF and protease inhibitors for whole-cell lysate preparation. Equal amounts of lysate (on a protein basis) were then differentiated using the SDS-PAGE, blotted on PVDF membranes, conjugated with various specific primary antibodies, and then probed with appropriate secondary antibodies. The immunoreactive bands were detected using the ECL method and visualized on Kodak Bio-MAX MR film. Proteins from cells were extracted and subjected to the western blotting analysis. β-Actin was used as an internal control. The deacetylase enzyme assay was based on a homogeneous fluorescence release assay. […] After fluorophore from the deacetylated substrates, fluorescent signal was detected.

The subject of a further assay is TSGH (gastric carcinoma). The assay can be described thus: IC50 in human cancer cell lines (inhibiting HDAC): TSGH. To be noted: read-out: IC50, inhibiting HDAC in human cancer cell lines.
A further assay deals with MCF-7 (breast carcinoma). Kind of assay: IC50 in human cancer cell lines (inhibiting HDAC): MCF-7. The note with it: MCF7, read-out: IC50, inhibiting HDAC in human cancer cell lines.
The test system of the next assay is C6 glioma cell line. The assay can be described thus: Cell proliferation in C6 glioma in vitro (MTT). The assay is classed as cell-based. To be noted: rat C6 glioma. An excerpt: C6 glioma cell line was obtained from American Type Culture Collection.
The test system of assay [9] is human glioblastoma (U87-MG-LucNeo cells) xenograft. The assay can be described thus: Orthotopic tumor size measurement (bioluminescence imaging). The assay is classed as in vivo, mice. To be noted: Compound 7 25 mg/kg versus SAHA 150 mg/kg and TMZ 25 mg/kg. From the text: Another parallel set of xenografted nude mice treated with drug or vehicle treatment as described above were used in this experiment.

For assay [10], the system named is HDACs (p21, p27, histone, and α-tubulin acetylation) in the PC3 xenograft model. Kind of assay: In vivo HDAC inhibitory assay, PC3 xenograft. To be noted: 25 mg/kg, oral, PC3 xenograft mice. As to the method: Subcutaneous inoculation of 5×10^6 PC3 cells in specific pathogen-free male athymic mice (strain BALB/cAnN.Cg-Foxn1nu/CrlNarl) from the National Laboratory Animal Center, Taiwan, was applied. The mice were subsequently fed under specific pathogen-free conditions and provided with sterile water and food. […] Tumor samples were obtained and frozen in liquid nitrogen before storage in −80° C. Tumor proteins were extracted and subjected to the Western blotting analysis. β-Actin was used as an internal control.

The structures appear in SMILES notation. Where only a bound is given, the exact number is not on record here.

HDAC2, sequence (Q92769 whole entry, species assumed): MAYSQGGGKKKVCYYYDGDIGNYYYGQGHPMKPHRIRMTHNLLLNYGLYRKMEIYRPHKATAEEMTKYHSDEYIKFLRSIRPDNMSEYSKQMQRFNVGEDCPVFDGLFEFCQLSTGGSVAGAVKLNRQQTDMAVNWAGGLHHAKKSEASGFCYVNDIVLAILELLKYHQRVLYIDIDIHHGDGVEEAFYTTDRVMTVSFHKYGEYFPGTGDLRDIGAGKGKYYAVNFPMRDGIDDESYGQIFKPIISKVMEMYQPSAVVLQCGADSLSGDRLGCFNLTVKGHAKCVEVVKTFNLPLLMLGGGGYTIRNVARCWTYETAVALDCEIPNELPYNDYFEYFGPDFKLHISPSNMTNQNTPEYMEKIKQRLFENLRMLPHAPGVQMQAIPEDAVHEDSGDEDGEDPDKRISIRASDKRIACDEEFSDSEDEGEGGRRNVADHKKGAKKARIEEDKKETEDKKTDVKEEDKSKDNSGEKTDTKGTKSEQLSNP
HDAC6, sequence (Q9UBN7 whole entry, species assumed): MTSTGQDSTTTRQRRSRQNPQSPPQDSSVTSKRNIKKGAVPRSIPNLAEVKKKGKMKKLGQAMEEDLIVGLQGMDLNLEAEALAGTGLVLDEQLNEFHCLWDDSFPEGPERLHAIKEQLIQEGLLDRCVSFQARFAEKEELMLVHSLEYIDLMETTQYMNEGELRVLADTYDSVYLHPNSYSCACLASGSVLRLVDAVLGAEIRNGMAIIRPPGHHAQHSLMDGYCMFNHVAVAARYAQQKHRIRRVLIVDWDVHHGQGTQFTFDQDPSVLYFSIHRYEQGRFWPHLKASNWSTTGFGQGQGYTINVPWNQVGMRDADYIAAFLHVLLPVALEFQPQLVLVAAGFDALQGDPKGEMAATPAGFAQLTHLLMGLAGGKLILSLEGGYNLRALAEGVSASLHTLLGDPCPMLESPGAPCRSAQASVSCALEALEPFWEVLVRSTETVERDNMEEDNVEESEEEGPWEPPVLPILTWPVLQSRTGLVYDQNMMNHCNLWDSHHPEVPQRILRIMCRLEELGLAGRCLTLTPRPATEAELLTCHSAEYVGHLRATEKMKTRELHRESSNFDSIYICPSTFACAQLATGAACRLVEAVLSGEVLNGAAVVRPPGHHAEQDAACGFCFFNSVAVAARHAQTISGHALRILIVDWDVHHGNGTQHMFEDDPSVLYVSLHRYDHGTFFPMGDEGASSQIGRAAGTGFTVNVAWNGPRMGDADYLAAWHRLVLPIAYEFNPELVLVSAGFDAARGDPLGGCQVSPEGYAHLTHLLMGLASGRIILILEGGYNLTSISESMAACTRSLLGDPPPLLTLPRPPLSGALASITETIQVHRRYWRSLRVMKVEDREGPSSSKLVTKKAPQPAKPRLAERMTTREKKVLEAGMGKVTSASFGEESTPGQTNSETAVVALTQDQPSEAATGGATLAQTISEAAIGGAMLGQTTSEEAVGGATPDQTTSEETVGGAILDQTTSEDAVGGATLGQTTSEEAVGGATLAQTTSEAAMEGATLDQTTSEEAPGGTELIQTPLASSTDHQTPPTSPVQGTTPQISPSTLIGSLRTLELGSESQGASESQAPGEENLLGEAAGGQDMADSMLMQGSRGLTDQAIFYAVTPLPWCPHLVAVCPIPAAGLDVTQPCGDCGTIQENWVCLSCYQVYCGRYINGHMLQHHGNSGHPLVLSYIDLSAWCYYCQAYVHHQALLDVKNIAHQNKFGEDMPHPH
Description for KB-L30 (KB-resistant): as §2
Description for TSGH (gastric carcinoma): as §2

Take `COc1ccc(S(=O)(=O)N2CCc3cc(/C=C/C(=O)NO)cnc32)cc1` [Compound 5b, (E)-N-hydroxy-3-(1-(4-methoxyphenylsulfonyl)-2,3-dihydro-1H-pyrrolo[2,3-b]pyridin-5-yl)acrylamide]: the IC50 in assay [1] is 240 ± 108 nM; in the assay with H9 (T cell lymphoma) it was 55.4 ± 7.8 nM; in [3], 247 ± 9.3 nM; in the assay with OECM-1 (oral carcinoma) it was 384 ± 72.1 nM; in the assay with SCC15 (tongue carcinoma), 176 ± 63.9 nM; in assay [4], 180 ± 70 nM. The IC50 with BJAB (B cell lymphoma) was determined as 161 ± 20.3 nM; in the assay on KB-L30 (KB-resistant) it was 175 ± 26.8 nM; in assay [5] it was 447 ± 37.3 nM; in [6], 100 ± 40 nM; in the assay with KB-VIN10 (KB resistant), 85 nM; in assay [7] it was 90 ± 30 nM. Also, the “histone and α-tubulin acetylation” value in [2] is “induced histone and α-tubulin acetylation”. The “concentration inducing inhibition of HDAC2” value on HDAC2 is at most 50 nM. The “concentration inducing inhibition of HDAC6” value at HDAC6 is on record as “about 100 nM”.
Regarding `O=C(/C=C/c1cccc(S(=O)(=O)n2ccc3cccnc32)c1)NO` [Compound 7, (E)-3-(3-(1H-Pyrrolo[2,3-b]pyridin-1-ylsulfonyl)phenyl)-N-hydroxyacrylamide], the values for the IC50 (in [8]; with TSGH (gastric carcinoma); with MCF-7 (breast carcinoma)) were 2510 ± 810 nM, 2100 ± 110 nM and 1330 ± 360 nM, respectively. Moreover, the “inhibition of HDAC1-10 activities in PC3 cells” value with HDAC1-10 is recorded as “inhibited HDAC1-10 activities in PC3 cells in a concentration-dependent manner”. For the same compound, the inhibition at 30 µM in the assay with C6 glioma cell line was around 50%. In addition, in assay [9], the “tumor size (bioluminescence imaging)” value is “decreased the tumor size more than a higher dose of SAHA (150 mg/kg) or the same dose of TMZ (25 mg/kg)”. The “inhibiting HDACs in vivo (p21, p27, histone, and α-tubulin acetylation)” value in [10] is reported as “effective”.

The term IC50 denotes the concentration that inhibits the measured activity by half. As a reminder, the inhibition is the relative decrease from the control value, in per cent.

The values are drawn from US10246455B2, “Histone deacetylase inhibitors” (Taipei Medical University, priority 2014, dated 2019).
